Key:
[1] = biological target: S-RBD protein; SARS-CoV-2 RBD (Severe acute respiratory syndrome coronavirus 2, UniProt P0DTC2); test: 1H CPMG and STD NMR; DARTS; assay type: binding; conditions: 200 µM S416, 5 µM RBD, PBS in D2O, 5% DMSO-d6, 25 °C
HCoV-OC43 spike protein = biological target: T1, HCoV-OC43 spike protein (Human coronavirus OC43, UniProt P36334); assay type: binding
T1 construct: gene S
T1 sequence (P36334 14-1297): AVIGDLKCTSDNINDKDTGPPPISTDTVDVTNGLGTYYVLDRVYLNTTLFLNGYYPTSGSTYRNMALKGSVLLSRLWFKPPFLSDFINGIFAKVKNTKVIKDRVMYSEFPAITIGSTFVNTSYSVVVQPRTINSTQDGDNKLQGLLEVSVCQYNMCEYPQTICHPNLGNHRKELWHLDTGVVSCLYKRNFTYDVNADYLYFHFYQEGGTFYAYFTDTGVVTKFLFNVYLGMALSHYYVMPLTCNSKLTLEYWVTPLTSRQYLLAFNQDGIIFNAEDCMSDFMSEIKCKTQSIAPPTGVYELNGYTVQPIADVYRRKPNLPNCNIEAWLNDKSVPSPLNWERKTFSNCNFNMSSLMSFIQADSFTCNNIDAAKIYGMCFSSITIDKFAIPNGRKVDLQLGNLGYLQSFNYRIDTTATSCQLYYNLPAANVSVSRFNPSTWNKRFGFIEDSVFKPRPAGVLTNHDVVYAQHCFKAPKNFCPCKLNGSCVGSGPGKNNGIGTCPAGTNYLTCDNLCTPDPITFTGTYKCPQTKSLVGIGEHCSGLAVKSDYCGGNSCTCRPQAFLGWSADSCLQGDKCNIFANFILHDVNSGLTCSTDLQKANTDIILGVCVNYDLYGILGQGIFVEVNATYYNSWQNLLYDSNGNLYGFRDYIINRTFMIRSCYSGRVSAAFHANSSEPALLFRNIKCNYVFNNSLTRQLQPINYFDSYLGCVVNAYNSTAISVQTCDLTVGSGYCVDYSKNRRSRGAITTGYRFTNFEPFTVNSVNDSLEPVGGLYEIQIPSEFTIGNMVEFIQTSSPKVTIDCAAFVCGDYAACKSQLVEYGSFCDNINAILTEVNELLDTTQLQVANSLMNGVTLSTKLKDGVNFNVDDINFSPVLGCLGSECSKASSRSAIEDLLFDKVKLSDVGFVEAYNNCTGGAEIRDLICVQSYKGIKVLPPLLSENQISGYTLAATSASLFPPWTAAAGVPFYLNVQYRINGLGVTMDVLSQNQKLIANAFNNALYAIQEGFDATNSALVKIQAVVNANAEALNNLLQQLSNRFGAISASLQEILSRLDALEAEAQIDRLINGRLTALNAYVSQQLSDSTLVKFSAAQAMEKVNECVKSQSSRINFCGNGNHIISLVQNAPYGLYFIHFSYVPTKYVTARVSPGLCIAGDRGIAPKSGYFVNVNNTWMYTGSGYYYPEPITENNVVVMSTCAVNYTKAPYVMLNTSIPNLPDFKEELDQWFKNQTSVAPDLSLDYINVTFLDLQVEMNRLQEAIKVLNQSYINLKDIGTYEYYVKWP

For `CN(/N=C/c1ccccc1C(=O)O)c1nc(-c2ccccc2Cl)cs1` [S416], the “1H CPMG and STD NMR; DARTS” value [1] was “confirmed that S416 could indeed bind to RBD directly” and the Kd (HCoV-OC43 spike protein) was 33.3 µM.

— PMC12279193 (Advanced Science, 2025)
